Source: the supplement of paper PMC11451515

Tested on: SEM cells
Test: cell viability relative to DMSO control; higher = less cytotoxic
Conditions: 48 h
How it was run: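 Leukemia cells (NOMO1 or SEM, 500 cells/well; P12-Ichikawa, 1000 cells/well) were seeded in 5 μl in 1536-well plates after at least four passages of adaptation to each medium. They received library compounds in DMSO by pin dosing, 11 threefold points from 47 μM to 0.79 nM. Luminescence with CellTiter-Glo One was read after 48 h at 37°C. Viability is stated per plate relative to DMSO wells, with cell-free wells as background.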

[1] = HPLM + 10% dialyzed FBS, 0.000781 µM
[2] = HPLM + 10% dialyzed FBS, 0.00234 µM
[3] = HPLM + 10% dialyzed FBS, 0.00702 µM
[4] = HPLM + 10% dialyzed FBS, 0.0211 µM
[5] = HPLM + 10% dialyzed FBS, 0.0632 µM
[6] = HPLM + 10% dialyzed FBS, 0.19 µM
[7] = HPLM + 10% dialyzed FBS, 0.569 µM
[8] = HPLM + 10% dialyzed FBS, 1.71 µM
[9] = HPLM + 10% dialyzed FBS, 5.12 µM
[10] = HPLM + 10% dialyzed FBS, 15.4 µM
[11] = HPLM + 10% dialyzed FBS, 46.1 µM
[12] = RPMI 5 mM glucose + 10% FBS, 0.000781 µM
[13] = RPMI 5 mM glucose + 10% FBS, 0.00234 µM
[14] = RPMI 5 mM glucose + 10% FBS, 0.00702 µM
[15] = RPMI 5 mM glucose + 10% FBS, 0.0211 µM
[16] = RPMI 5 mM glucose + 10% FBS, 0.0632 µM
[17] = RPMI 5 mM glucose + 10% FBS, 0.19 µM
[18] = RPMI 5 mM glucose + 10% FBS, 0.569 µM
[19] = RPMI 5 mM glucose + 10% FBS, 1.71 µM
[20] = RPMI 5 mM glucose + 10% FBS, 5.12 µM
[21] = RPMI 5 mM glucose + 10% FBS, 15.4 µM
[22] = RPMI 5 mM glucose + 10% FBS, 46.1 µM
[23] = RPMI 5 mM glucose + 10% dialyzed FBS, 0.000781 µM
[24] = RPMI 5 mM glucose + 10% dialyzed FBS, 0.00234 µM
[25] = RPMI 5 mM glucose + 10% dialyzed FBS, 0.00702 µM
[26] = RPMI 5 mM glucose + 10% dialyzed FBS, 0.0211 µM
[27] = RPMI 5 mM glucose + 10% dialyzed FBS, 0.0632 µM
[28] = RPMI 5 mM glucose + 10% dialyzed FBS, 0.19 µM
[29] = RPMI 5 mM glucose + 10% dialyzed FBS, 0.569 µM
[30] = RPMI 5 mM glucose + 10% dialyzed FBS, 1.71 µM
[31] = RPMI 5 mM glucose + 10% dialyzed FBS, 5.12 µM
[32] = RPMI 5 mM glucose + 10% dialyzed FBS, 15.4 µM
[33] = RPMI 5 mM glucose + 10% dialyzed FBS, 46.1 µM

| Structure (SMILES) | cell viability [1] [%] | cell viability [2] [%] | cell viability [3] [%] | cell viability [4] [%] | cell viability [5] [%] | cell viability [6] [%] | cell viability [7] [%] | cell viability [8] [%] | cell viability [9] [%] | cell viability [10] [%] | cell viability [11] [%] | cell viability [12] [%] | cell viability [13] [%] | cell viability [14] [%] | cell viability [15] [%] | cell viability [16] [%] | cell viability [17] [%] | cell viability [18] [%] | cell viability [19] [%] | cell viability [20] [%] | cell viability [21] [%] | cell viability [22] [%] | cell viability [23] [%] | cell viability [24] [%] | cell viability [25] [%] | cell viability [26] [%] | cell viability [27] [%] | cell viability [28] [%] | cell viability [29] [%] | cell viability [30] [%] | cell viability [31] [%] | cell viability [32] [%] | cell viability [33] [%] |
| --- | --- | --- | --- | --- | --- | --- | --- | --- | --- | --- | --- | --- | --- | --- | --- | --- | --- | --- | --- | --- | --- | --- | --- | --- | --- | --- | --- | --- | --- | --- | --- | --- | --- |
| CC(C)(C)c1cc(C(=O)O)c(NC(=O)Nc2ccc3[nH]ncc3c2)s1 | 95.4 | 97.5 | 89.6 | 101 | 100 | 70.7 | 100 | 98.6 | 85.9 | 93.1 | 82.2 | 112 | 93.2 | 94.2 | 107 | 101 | 90.8 | 111 | 104 | 101 | 93.1 | 77.7 | 95.2 | 93.1 | 83.3 | 97.5 | 99.6 | 88.9 | 102 | 91 | 87.5 | 93.7 | 73.2 |
| CCNC(=O)[C@H]1O[C@@H](n2cnc3c(N)nc(NCCc4ccc(CCC(=O)O)cc4)nc32)[C@H](O)[C@@H]1O | 100 | 90.7 | 106 | 111 | 115 | 107 | 107 | 110 | 106 | 104 | 78.8 | 83.6 | 33.4 | 91.4 | 97.6 | 103 | 108 | 110 | 88.1 | 92 | 89.6 | 62.3 | 88.3 | 84.3 | 101 | 102 | 116 | 116 | 117 | 96.3 | 109 | 99 | 74.8 |
| Cc1cc(Cl)ccc1OCCCC(=O)NO | 105 | 96.7 | 103 | 117 | 130 | 120 | 118 | 101 | 89 | 34 | 12.8 | 107 | 101 | 102 | 122 | 112 | 117 | 115 | 124 | 91.7 | 43.9 | 10.9 | 98.8 | 96.2 | 93.5 | 99.4 | 97.1 | 106 | 105 | 89.5 | 76.5 | 26.7 | 10.2 |
| CC(C)NCC(O)c1ccc(NS(C)(=O)=O)cc1 (configuration not stated) | 110 | 110 | 93 | 106 | 111 | 124 | 108 | 105 | 111 | 116 | 108 | 109 | 104 | 117 | 106 | 109 | 101 | 96.2 | 87.1 | 92.7 | 97.2 | 107 | 107 | 99.1 | 97.4 | 104 | 111 | 105 | 111 | 106 | 106 | 109 | 105 |
| OC1=CC=C(C=C1)\C2=C\C(=O)C3=C(O2)C=C(O)C=C3O | 106 | 111 | 115 | 112 | 113 | 108 | 108 | 94.4 | 106 | 113 | 96.3 | – | – | – | – | – | – | – | – | – | – | – | 92 | 121 | 119 | 109 | 111 | 108 | 108 | 94.9 | 93.6 | 98 | 64.2 |
| COC1(C[S+]([O-])c2ccccc2)CCN(CCc2c[nH]c3ccc(F)cc23)CC1 (configuration not stated) | 119 | 119 | 122 | 104 | 123 | 111 | 109 | 100 | 122 | 110 | 93.5 | 120 | 109 | 117 | 106 | 119 | 113 | 116 | 111 | 117 | 110 | 95.6 | – | – | – | – | – | – | – | – | – | – | – |
| N\C1=N\C2=C(N=C[N]2COC(CO)CO)C(=O)N1 | 103 | 98.8 | 96.8 | 111 | 97 | 104 | 108 | 108 | 104 | 82.4 | 3.99 | 83.9 | 78.2 | 92.2 | 93.2 | 94.9 | 96.3 | 88.2 | 87.4 | 76 | 64.8 | 2.7 | 94.6 | 98.7 | 105 | 108 | 106 | 108 | 113 | 103 | 115 | 94.7 | 4.17 |
| COc1ccc(Nc2cc(-c3cnc(N)nc3)nc(N3CCOCC3)n2)cn1 | 93.8 | 96.7 | 90.6 | 96.8 | 99.4 | 102 | 92.6 | 84.7 | 47.3 | 59.8 | 44.6 | 104 | 104 | 110 | 115 | 120 | 99.5 | 108 | 99 | 52.8 | 65.6 | 57 | 98.6 | 89.5 | 91 | 105 | 97 | 80.9 | 89.6 | 89.7 | 43.9 | 57.4 | 44.5 |
